Entries after “also recorded” stand apart in the source; their conditions may differ. Where two headings read alike, the source gives them in different places.
Key:
Commong roundsel = assay type: in vivo; details: Salinas plots; rate 400 lbs acres^−1
Shepherd-spurse = assay type: in vivo; details: Salinas plots; rate 400 lbs acres^−1
Southern brassbuttons = assay type: in vivo; details: Watsonville plots; rate 400 lbs acres^−1
Corn spurry = assay type: in vivo; details: Watsonville plots; rate 400 lbs acres^−1
[1] = system: root-knot nematode eggs (Meliodogyne incognita); assay: Nematicide screen, root-knot nematode galling assay on tomato; assay type: in vivo; details: 0 to 2000 ppm soil drench, tarped 14 days, seedlings assessed 30 days after transplant
Experimental: Nematicide Screen: Efficacy as a nematicide was evaluated by infesting field soil with a standardized quantity of root-knot nematode eggs (Meliodogyne incognita). Soil was partitioned into 10 cm pots containing 500 g of soil each with soil moisture adjusted to 5%. Pots were treated with compounds ranging from 0 ppm to 2000 ppm of active ingredient in a 100-ml soil drench. Six replicate pots of each concentration were treated and tarped with co-extruded black-on-white polyethylene mulch for 14 days. After tarps were removed, a single tomato seedling was transplanted into each pot. Seedlings were removed 30 days later and assessed for root galling, root fresh weight, root dry weight, and number of eggs produced per gram of root tissue.

Common chickweed = assay type: in vivo; details: Watsonville plots; rate 400 lbs acres^−1
native weed population [2] = assay type: in vivo
Little mallow = assay type: in vivo; details: Watsonville plots; rate 400 lbs acres^−1
Annual sowthistle = assay type: in vivo; details: Watsonville plots; rate 400 lbs acres^−1
Redstem filaree = assay type: in vivo; details: Watsonville plots; rate 400 lbs acres^−1
Verticillium dahliea = assay type: in vivo; details: Watsonville; preplant fumigation, 400 pound per acre
[3] = system: smooth pigweed (Amaranthus hybridus) seeds; assay: Herbicide screen, smooth pigweed petri plate bioassay; assay type: in vivo; details: all ppm levels tested (up to 2000 ppm), 30 days
Experimental: (§1) Herbicide Screen: Each compound was tested on seeds of smooth pigweed (Amaranthus hybridus) and barnyard grass (Echinocloa crus-galli), and on tubers of purple nutsedge (Cyperus rotundus), by exposing seeds or tubers to a specific concentration of the test compound. Seeds were surface sterilized (by rinsing in 2% bleach solution for 90 seconds followed by two rinses with sterile water) and 20 seeds placed on sterile filter paper (Whatman #5) in a 10-cm petri plate for each of six replicates for each weed species tested. Twenty ml of compound of concentrations ranging from 0 ppm (sterile water control) to 2000 ppm was added to the petri dishes. Plates were stored at 30° C. in an dark incubator. Seed germination was monitored at 24 hr intervals for 30 days. Petri plate bioassays were repeated twice for each compound. Field collected purple nutsedge tubers were placed in 500 g of field soil with soil moisture adjusted to 5%. Five nutsedge tubers were planted in each 10 cm pot at a depth of 2.5 cm. Six replicate pots of each concentration, ranging from 0 ppm (water control) to 2000 ppm, were treated using 100 ml as a soil drench. Pots were tarped with co-extruded black-on-white polyethylene mulch for 7 days. After the tarps were removed, the number of emerged nutsedge shoots was recorded on a weekly basis for 60 days.

Henbet = assay type: in vivo; details: Salinas plots; rate 400 lbs acres^−1
native weed population [4] = assay type: in vivo; details: Salinas plots, rate 400 lbs acres^−1
[5] = system: barnyard grass (Echinocloa crus-galli) seeds; assay: Herbicide screen, barnyard grass petri plate bioassay; assay type: in vivo; details: all ppm levels tested (up to 2000 ppm), 30 days
Experimental: as §1

[6] = system: purple nutsedge (Cyperus rotundus) tubers; assay: Herbicide screen, nutsedge greenhouse assay (soil drench in pots); assay type: in vivo; details: for level eliminating the germination of nutsedge: 100 ml soil drench, 500 g soil, tarped 7 days, shoots counted for 60 days
Experimental: as §1

[7] = system: Fusarium oxysporum f. sp. lycopersici (isolate FP-7) spores; assay: Fusarium Tetrazolium Assay; assay type: cell-based; details: 24 hours of exposure; MTT absorbance at 570 nm
Experimental: Fusarium Tetrazolium Assay: The evaluation of fungicidal activity was performed using a modified colorimetric assay (Mace, M. E., et al., Pesticide Biochemistry and Physiology, 38: 57-59 (1990)). Each candidate compound was tested using a suspension of Fusarium oxysporum f. sp. lycopersici (isolate FP-7) spores harvested from 10-day old petri plates using a 0.05% stock solution of Triton X-100 (referred to as FT stock). Harvested spores were suspended in Czapek-Dox Broth (CDB), prepared according to label instructions, at a ratio of 1:5 CDB:FT. The suspension was then standardized using a Beckman spectrophotometer (430 nm) which had been calibrated using a CDB blank. Compounds were then added to aliquots of the suspension to achieve active ingredient concentrations ranging from 0 ppm (untreated control) to 2000 ppm. Suspensions were incubated for 24 hr at 28° C. A 10% stock solution of MTT ((3-4,5-dimethylthiazole-2-yl)-2,5-diphenyl-2-2H-tetrazolium bromide) was then added to each aliquot; MTT is a vital stain that is commonly used to show if an organism is alive based on a color change). The suspensions were allowed to incubate for 4 hr, and then pelleted, drained, rinsed, and treated with 95% ethanol. The color change, which correlates with spore viability, was assessed using a Beckman spectrophotometer (570 nm) calibrated with 95% ethanol. Benlate® (benomyl) was used as an industry standard control. Each treatment was replicated six times and the assay for each compound was repeated. Regression analysis was performed using Sigma Plot 2000.

`OCCBr` [2-bromoethanol] was tested, and the “weed biomass, Commong roundsel” value (Commong roundsel) was 0.3 gram/m^2, the “weed biomass, Shepherd-spurse” value (Shepherd-spurse) was 11.3 gram/m^2 and the “weed biomass, Southern brassbuttons” value (Southern brassbuttons) was 1.0 gram/m^2. The “weed biomass, Corn spurry” value (Corn spurry) was 1.1 gram/m^2, the “root gall severity on tomato” value [1] was “Only the untreated control showed galling of any kind” and the “weed biomass, Common chickweed” value (Common chickweed) was 1.6 gram/m^2. For the same compound, the “control of native weeds (in words)” value (native weed population [2]; Watsonville) was “control of most weeds”, the “weed biomass, Other weeds” value (native weed population [2]; Watsonville plots, rate 400 lbs acres^−1) was 3.6 gram/m^2 and the Total weed biomass (native weed population [2]; Watsonville plots, rate 400 lbs acres^−1, same letter = not significantly different at P <0.05) was 13.7a gram/m^2. The “weed biomass, Little mallow” value (Little mallow) was 0.2 gram/m^2, the “weed biomass, Annual sowthistle” value (Annual sowthistle) was 0.0 gram/m^2 and the “weed biomass, Redstem filaree” value (Redstem filaree) was 0.3 gram/m^2. For the same compound, the “reduction of the population of Verticillium dahliea” value (Verticillium dahliea) was 74%, the “germination of pigweed seeds” value [3] was “eliminated at all ppm levels tested” and the “weed biomass, Henbet” value (Henbet) was 9.4 gram/m^2. For the same compound, the “weed biomass, Other weeds” value (native weed population [4]) was 21.5 gram/m^2, the Total weed biomass (native weed population [4]; same letter = not significantly different at P < 0.05) was 46.7a gram/m^2 and the “germination of barnyard grass seeds” value [5] was “eliminated at all ppm levels tested”. The “level eliminating the germination of nutsedge” value [6] was ≥ 1000 ppm, the nutsedge germination ([6]; at the 500 ppm level) was “approximately 50%” and the “soil applied equivalent of the rate eliminating nutsedge germination” value ([6]; equivalent of the 1000 ppm drench level) was 200 ppm. The “fungicidal activity (in words)” value [7] was “excellent fungicidal activity”.

In the case of `OCCI` [2-iodoethanol], the “root gall severity on tomato” value [1] is reported as “galling decreases with increased concentration”, the “germination of pigweed seeds” value [3] is reported as “eliminated at all ppm levels tested” and the “germination of barnyard grass seeds” value [5] is reported as “eliminated at all ppm levels tested”. For the same compound, the “level eliminating the germination of nutsedge” value [6] was ≥ 500 ppm, the “concentration effective at reducing cell viability to levels achieved with Benlate (100 ppm)” value [7] was 100-500 ppm and the “fungicidal activity (in words)” value [7] was “comparable to the Benlate® control; also recorded: excellent fungicidal activity”.
